Measurements published in patent publication US7780997B2, “Pharmaceutically active extracts of vitex leucoxylon, a process of extracting the same and a method of treating diabetes and inflammatory diseases therewith” (Laila Impex, priority 2005, dated 2010).

Key:
Albino wistar rats [1] = test: Hypoglycemic activity: inhibition of sucrose-induced raise in serum glucose levels (SGL); assay type: in vivo, rat; conditions: for Increased SGL (mean ± SE): 20 mL/kg of 20% sucrose after 30 min, blood one hour after treatment, rats; for % of inhibition (increase in serum glucose levels vs control): sucrose-loaded rats
Procedure: Hypoglycemic activity: Hypoglycemic activity was tested by the inhibition of sucrose-induced raise in serum glucose levels (SGL), by the V. leucoxylon extracts in Albino wistar rats. The procedure involves fasting the rats for overnight at ad libitum water, numbered weighed and randomly divided into groups of three animals each. Prior to treatment blood samples were drawn from sinus orbital plexus of all animals using heparin coated glass capillaries under mild ether anesthesia. The blood samples were tested for serum glucose levels using enzymatic GOD/POD method. Optical densities were measured at 500 nm, SGL was calculated as follows. SGL=(test OD/Standard OD)×100 and the results were expressed in mg/dL. All the groups were treated orally with corresponding test substances, standard, vehicle (5% gum acacia). After 30 minutes, all animals were given 20 mL/kg of 20% sucrose solution orally using gastric tube. One hour after treatment, blood samples were drawn again under mild ether anesthesia and tested for serum glucose levels in a similar procedure as described above for initial serum glucose estimation. The data was subjected to statistical treatment using t-test and inhibitory rate was calculated by comparing mean increase in serum glucose levels of control and red groups.

Albino wistar rats [2] = test: Anti-inflammatory activity (Carrageenin induced paw edema method); assay type: in vivo; conditions: Rattus norvegicus, oral dose 25 mg/Kg, 3 h after carrageenin
Procedure: Anti-inflammatory activity (Carrageenin induced paw edema method): Prior to the experiment all the animals (Albino wistar rats of either sex weighing between 180-300 g) fasted at ad libitum water and were weighed, numbered and randomly divided into groups, each containing 3 animals. Initial paw volumes were measured using plethesmometer and noted. All the groups were treated with corresponding test substance orally using gastric tube. Control group was treated with 10 mL/Kg vehicle (0.5%, carboxymethyl cellulose sodium salt). After 30 minutes, all the animals were injected subcutaneously at subplantar region of left hind paw 1% carrageenin 0.1 mL using hypodermic needle. All the animals were administered water 20 mL/Kg body weight and kept devoid of water for 3 h (maintained uniform hydration). After 3 h, paw volumes of all the animals were measured twice and average volume from two measurements were recorded. The % of inhibition of paw edema was calculated by comparing paw edema of test substance treated groups with that of control groups.

Compound: C[C@H]1[C@H](C)CC[C@]2(C(=O)O)CC[C@]3(C)C(=CC[C@@H]4[C@@]5(C)C[C@@H](O)[C@H](O)C(C)(C)[C@@H]5CC[C@]43C)[C@H]12 [Corosolic acid]
- Increased SGL (mean ± SE) (Albino wistar rats [1]; oral dose 1 mg/Kg): 27.72 ± 3.27 mg/dL
- % of inhibition (increase in serum glucose levels vs control) (Albino wistar rats [1]; oral dose 1 mg/Kg): 9.78%

Compound: O=C(O)Cc1ccccc1Nc1c(Cl)cccc1Cl [Diclofenac sodium]
- inhibition at 25 mg/kg (Albino wistar rats [2]): 63.1%

Compound: COc1ccc(Cl)cc1C(=O)NCCc1ccc(S(=O)(=O)NC(=O)NC2CCCCC2)cc1 [Glibenclamide]
- Increased SGL (mean ± SE) (Albino wistar rats [1]; oral dose 25 mg/Kg): 6.12 ± 4.32 mg/dL
- % of inhibition (increase in serum glucose levels vs control) (Albino wistar rats [1]; oral dose 25 mg/Kg): 80.0%
